Assay results published in PubChem BioAssay (NCI).
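The concentration for 50% growth inhibition is given as GI50. TGI is the concentration that stops growth completely.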

Key:
Experiment in all cases: NCI-60 cell line screen, 384-well format
A498 renal = tested on: A498 renal
A549 NSCLC = tested on: A549 NSCLC
BT-549 breast = tested on: BT-549 breast
CAKI-1 renal = tested on: CAKI-1 renal
CCRF-CEM leukemia = tested on: CCRF-CEM leukemia
DU-145 prostate = tested on: DU-145 prostate
HCT-116 colon = tested on: HCT-116 colon
HCT-15 colon = tested on: HCT-15 colon
HL-60(TB) leukemia = tested on: HL-60(TB) leukemia
HOP-62 NSCLC = tested on: HOP-62 NSCLC
HS 578T breast = tested on: HS 578T breast
HT29 colon = tested on: HT29 colon
IGROV1 ovarian = tested on: IGROV1 ovarian
K-562 leukemia = tested on: K-562 leukemia
KM12 colon = tested on: KM12 colon
LOX IMVI melanoma = tested on: LOX IMVI melanoma
M14 melanoma = tested on: M14 melanoma
MALME-3M melanoma = tested on: MALME-3M melanoma
MCF7 breast = tested on: MCF7 breast
MDA-MB-231 breast = tested on: MDA-MB-231 breast
MDA-MB-435 melanoma = tested on: MDA-MB-435 melanoma
MDA-MB-468 breast = tested on: MDA-MB-468 breast
MOLT-4 leukemia = tested on: MOLT-4 leukemia
NCI-H226 lung = tested on: NCI-H226 lung
NCI-H23 lung = tested on: NCI-H23 lung
NCI-H322M lung = tested on: NCI-H322M lung
NCI-H522 lung = tested on: NCI-H522 lung
NCI/ADR-RES ovarian = tested on: NCI/ADR-RES ovarian
OVCAR-3 ovarian = tested on: OVCAR-3 ovarian
OVCAR-4 ovarian = tested on: OVCAR-4 ovarian
OVCAR-8 ovarian = tested on: OVCAR-8 ovarian
PC-3 prostate = tested on: PC-3 prostate
SF-268 CNS = tested on: SF-268 CNS
SF-295 CNS = tested on: SF-295 CNS
SK-MEL-28 melanoma = tested on: SK-MEL-28 melanoma
SK-MEL-5 melanoma = tested on: SK-MEL-5 melanoma
SK-OV-3 ovarian = tested on: SK-OV-3 ovarian
SN12C renal = tested on: SN12C renal
SNB-19 CNS = tested on: SNB-19 CNS
SNB-75 CNS = tested on: SNB-75 CNS
SR leukemia = tested on: SR leukemia
T-47D breast = tested on: T-47D breast
TK-10 renal = tested on: TK-10 renal
U251 glioblastoma = tested on: U251 glioblastoma
UACC-257 melanoma = tested on: UACC-257 melanoma
UACC-62 melanoma = tested on: UACC-62 melanoma
UO-31 renal = tested on: UO-31 renal

Cc1cc(Nc2ccc(NC(=O)c3ccc(Nc4ccnc5ccccc45)cc3)cc2)nc(N)n1
GI50 (A498 renal): 1500 nM | TGI (A498 renal): 2890 nM | GI50 (A549 NSCLC): 1870 nM | TGI (A549 NSCLC): 3400 nM | GI50 (BT-549 breast): 490 nM | TGI (BT-549 breast): 1120 nM | GI50 (CAKI-1 renal): 2960 nM | TGI (CAKI-1 renal): 8450 nM | GI50 (CCRF-CEM leukemia): 191 nM | TGI (CCRF-CEM leukemia): 335 nM | GI50 (DU-145 prostate): 1600 nM | TGI (DU-145 prostate): 2980 nM | GI50 (HCT-116 colon): 200 nM | TGI (HCT-116 colon): 413 nM | GI50 (HCT-15 colon): 3870 nM | TGI (HCT-15 colon): 13800 nM | GI50 (HL-60(TB) leukemia): 603 nM | TGI (HL-60(TB) leukemia): 1060 nM | GI50 (HOP-62 NSCLC): 695 nM | TGI (HOP-62 NSCLC): 1840 nM | GI50 (HS 578T breast): 1050 nM | TGI (HS 578T breast): 2240 nM | GI50 (HT29 colon): 319 nM | TGI (HT29 colon): 815 nM | GI50 (IGROV1 ovarian): 4970 nM | TGI (IGROV1 ovarian): 9370 nM | GI50 (K-562 leukemia): 324 nM | TGI (K-562 leukemia): 921 nM | GI50 (KM12 colon): 193 nM | TGI (KM12 colon): 355 nM | GI50 (LOX IMVI melanoma): 166 nM | TGI (LOX IMVI melanoma): 308 nM | GI50 (M14 melanoma): 1550 nM | TGI (M14 melanoma): 2920 nM | GI50 (MALME-3M melanoma): 1000 nM | TGI (MALME-3M melanoma): 2230 nM | GI50 (MCF7 breast): 254 nM | TGI (MCF7 breast): 618 nM | GI50 (MDA-MB-231 breast): 275 nM | TGI (MDA-MB-231 breast): 737 nM | GI50 (MDA-MB-435 melanoma): 1850 nM | TGI (MDA-MB-435 melanoma): 3260 nM | GI50 (MDA-MB-468 breast): 196 nM | TGI (MDA-MB-468 breast): 339 nM | GI50 (MOLT-4 leukemia): 203 nM | TGI (MOLT-4 leukemia): 347 nM | GI50 (NCI-H226 lung): 625 nM | TGI (NCI-H226 lung): 1210 nM | GI50 (NCI-H23 lung): 1010 nM | TGI (NCI-H23 lung): 2840 nM | GI50 (NCI-H322M lung): 418 nM | TGI (NCI-H322M lung): 1260 nM | GI50 (NCI-H522 lung): 217 nM | TGI (NCI-H522 lung): 410 nM | GI50 (NCI/ADR-RES ovarian): > 100000 nM | TGI (NCI/ADR-RES ovarian): > 100000 nM | GI50 (OVCAR-3 ovarian): 189 nM | TGI (OVCAR-3 ovarian): 333 nM | GI50 (OVCAR-4 ovarian): 521 nM | TGI (OVCAR-4 ovarian): 957 nM | GI50 (OVCAR-8 ovarian): 831 nM | TGI (OVCAR-8 ovarian): 2100 nM | GI50 (PC-3 prostate): 894 nM | TGI (PC-3 prostate): 2250 nM | GI50 (SF-268 CNS): 732 nM | TGI (SF-268 CNS): 1820 nM | GI50 (SF-295 CNS): 3160 nM | TGI (SF-295 CNS): 8990 nM | GI50 (SK-MEL-28 melanoma): 987 nM | TGI (SK-MEL-28 melanoma): 2270 nM | GI50 (SK-MEL-5 melanoma): 1340 nM | TGI (SK-MEL-5 melanoma): 2630 nM | GI50 (SK-OV-3 ovarian): 917 nM | TGI (SK-OV-3 ovarian): 2250 nM | GI50 (SN12C renal): 1220 nM | TGI (SN12C renal): 2480 nM | GI50 (SNB-19 CNS): 1240 nM | TGI (SNB-19 CNS): 2510 nM | GI50 (SNB-75 CNS): 2400 nM | TGI (SNB-75 CNS): 4700 nM | GI50 (SR leukemia): 172 nM | TGI (SR leukemia): 313 nM | GI50 (T-47D breast): 192 nM | TGI (T-47D breast): 334 nM | GI50 (TK-10 renal): 5630 nM | TGI (TK-10 renal): 17500 nM | GI50 (U251 glioblastoma): 195 nM | TGI (U251 glioblastoma): 340 nM | GI50 (UACC-257 melanoma): 556 nM | TGI (UACC-257 melanoma): 1560 nM | GI50 (UACC-62 melanoma): 719 nM | TGI (UACC-62 melanoma): 1940 nM | GI50 (UO-31 renal): 33800 nM | TGI (UO-31 renal): > 100000 nM
